What was measured:
[1] = target: human recombinant HDAC3/NcoR2 (Homo sapiens, UniProt O15379); experiment: Inhibition assay HDAC3 (fluorogenic substrate ZMAL); type: biochemical; conditions: HDAC1 over HDAC3, from IC50 values
Experimental: In vitro inhibitory activities against HDAC1−3 and HDAC6 were measured as previously published with minor modifications. […] Subsequently, 50 µL trypsin solution (0.4 mg/mL trypsin in buffer: 50 mM Tris−HCl, pH = 8.0, 100 mM NaCl) was added, followed by additional 30 min of incubation at 37 °C. […] All compounds were tested at least twice in duplicates.

Radiochemical stability = type: physicochemical; conditions: room temperature, more than two hours
Experimental: Radiochemical stability of [^18F]BA3 was investigated in 0.9% NaCl solution (containing 10% EtOH) and in n-octanol at room temperature for 2 h. Samples were analysed by radio-RP-HPLC (see quality control). The LogD7.4 value of [^18F]BA3 was experimentally determined in n-octanol/phosphate-buffered saline (PBS, pH = 7.4) at room temperature by the shake-flask method as described previously. Briefly, small tracer amounts (~800 kBq) were added to a mixture of 3 mL n-octanol and 3 mL PBS. After shaking for 20 min, the samples were centrifuged (10,000 rpm, 5 min) and 1 mL aliquots of the organic as well as aqueous layer were taken and measured in a gamma counter (1480 WIZARD, Perkin Elmer, Turku, Finland). Another 1 mL aliquot of the organic layer was mixed with 2 mL n-octanol and 3 mL PBS and subjected to the same procedure until constant partition coefficient values had been obtained. The measurement was performed twice in quadruplicate.

Sequence of human recombinant HDAC3/NcoR2 (O15379 whole entry): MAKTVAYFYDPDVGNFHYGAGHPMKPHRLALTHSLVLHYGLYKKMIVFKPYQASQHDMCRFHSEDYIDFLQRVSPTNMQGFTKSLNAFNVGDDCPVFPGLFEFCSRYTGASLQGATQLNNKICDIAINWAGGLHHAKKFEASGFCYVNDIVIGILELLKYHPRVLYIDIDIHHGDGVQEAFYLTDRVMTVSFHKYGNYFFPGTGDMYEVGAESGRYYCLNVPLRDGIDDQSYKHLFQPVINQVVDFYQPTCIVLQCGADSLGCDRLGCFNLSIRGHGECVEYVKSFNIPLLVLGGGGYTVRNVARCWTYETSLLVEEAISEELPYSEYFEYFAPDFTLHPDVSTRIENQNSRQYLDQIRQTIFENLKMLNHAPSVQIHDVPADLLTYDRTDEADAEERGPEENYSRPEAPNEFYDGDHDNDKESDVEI
Sequence of human recombinant HDAC3/NcoR2 (Q9Y618 395-489 partner limits assumed): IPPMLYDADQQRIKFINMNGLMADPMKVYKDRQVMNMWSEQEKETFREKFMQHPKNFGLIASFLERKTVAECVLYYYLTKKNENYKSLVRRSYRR

## CC([18F])C(=O)NCc1ccc(C(=O)Nc2cc(-c3ccsc3)ccc2N)cc1 (stereo not drawn) [[^18F]BA3]
[1]
  specificity ratio (HDAC1/HDAC3): > 230
Radiochemical stability; in n-octanol
  radiochemical purity (stability): > 99%
Radiochemical stability; in saline formulation containing 10% EtOH
  radiochemical purity (stability): > 99%
